{"source": "ChEMBL document CHEMBL4823282", "about": "“Novel Broad-Spectrum Antimicrobial Peptide Derived from Anoplin and Its Activity on Bacterial Pneumonia in Mice” (J Med Chem, 2021)", "key": {"Bacteria [1]": {"test_system": "Bacteria", "assay": "Antibacterial activity against bacteria incubated for 18 hrs by CLSI based broth dilution method", "assay_type": "functional"}, "Pseudomonas aeruginosa [2]": {"test_system": "Pseudomonas aeruginosa", "assay": "Synergistic antibacterial activity against Pseudomonas aeruginosa ATCC 27853 at 2 times MIC incubated for 18 to 24 hrs in presence of 2 times MIC of rifampicin by broth microdilution assay based checkerboard assay", "assay_type": "functional", "conditions": "time 18-24 hrs"}, "Erythrocyte": {"test_system": "Erythrocyte", "assay": "Hemolytic activity in BALB/C mouse erythrocytes incubated for 1 hr by absorbance method", "assay_type": "ADME, cell-based"}, "Pseudomonas aeruginosa [3]": {"test_system": "Pseudomonas aeruginosa", "assay": "Synergistic antibacterial activity against Pseudomonas aeruginosa ATCC 27853 at 2 times MIC incubated for 18 to 24 hrs in presence of 2 times MIC of polymyxin B by broth microdilution assay based checkerboard assay", "assay_type": "functional", "conditions": "time 18-24 hrs"}, "Enterococcus faecalis": {"test_system": "Enterococcus faecalis", "assay": "Antibacterial activity against Enterococcus faecalis ATCC 29212 incubated for 18 hrs by CLSI based broth dilution method", "assay_type": "functional"}, "Klebsiella pneumoniae": {"test_system": "Klebsiella pneumoniae", "assay": "Antibacterial activity against Klebsiella pneumoniae ATCC 700603 incubated for 18 hrs by CLSI based broth dilution method", "assay_type": "functional"}, "Fungi": {"test_system": "Fungi", "assay": "Antibacterial activity against fungi incubated for 18 hrs by CLSI based broth dilution method", "assay_type": "functional"}, "Bacteria [4]": {"test_system": "Bacteria", "assay": "Antibacterial activity against Gram-negative bacteria incubated for 18 hrs by CLSI based broth dilution method", "assay_type": "functional"}, "Acinetobacter baumannii": {"test_system": "Acinetobacter baumannii", "assay": "Antibacterial activity against Acinetobacter baumannii ATCC 19606 incubated for 18 hrs by CLSI based broth dilution method", "assay_type": "functional", "conditions": "ATCC 19606 = CIP 70.34 = JCM 6841"}, "[5]": {"assay": "Selectivity ratio of MHC10 for BALB/C mouse erythrocytes to MIC for gram positive bacteria", "assay_type": "toxicity"}, "[6]": {"assay": "Selectivity ratio of MHC10 for BALB/C mouse erythrocytes to MIC for bacteria", "assay_type": "toxicity"}, "[7]": {"assay": "Cytotoxicity against human glomerular mesangial cells incubated for 12 hrs by MTT assay", "assay_type": "cell-based", "conditions": "Glomerular mesangial cell"}, "[8]": {"assay": "Selectivity ratio of MHC10 for BALB/C mouse erythrocytes to MIC for gram-negative bacteria", "assay_type": "toxicity"}, "Bacillus subtilis": {"test_system": "Bacillus subtilis", "assay": "Antibacterial activity against Bacillus subtilis ATCC 23857 incubated for 18 hrs by CLSI based broth dilution method", "assay_type": "functional"}, "[9]": {"assay": "Selectivity ratio of MHC10 for BALB/C mouse erythrocytes to MIC for fungi", "assay_type": "toxicity"}, "Escherichia coli": {"test_system": "Escherichia coli", "assay": "Antibacterial activity against Escherichia coli ATCC 25922 incubated for 18 hrs by CLSI based broth dilution method", "assay_type": "functional"}, "Bacteria [10]": {"test_system": "Bacteria", "assay": "Antibacterial activity against Gram-positive bacteria incubated for 18 hrs by CLSI based broth dilution method", "assay_type": "functional"}, "[11]": {"test_system": "Staphylococcus epidermidis", "assay": "Antibacterial activity against Staphylococcus epidermidis ATCC 12228 incubated for 18 hrs by CLSI based broth dilution method", "assay_type": "functional"}, "Pseudomonas aeruginosa [12]": {"test_system": "Pseudomonas aeruginosa", "assay": "Antibacterial activity against Pseudomonas aeruginosa ATCC 27853 incubated for 18 hrs by CLSI based broth dilution method", "assay_type": "functional"}, "Staphylococcus aureus": {"test_system": "Staphylococcus aureus", "assay": "Antibacterial activity against Staphylococcus aureus ATCC 25923 incubated for 18 hrs by CLSI based broth dilution method", "assay_type": "functional"}}, "note": "Where a SMILES comes first, the peptide text is derived from it.", "data": [{"molecule": "C[C@@H](O)[C@H](NC(=O)[C@H](CCCCN)NC(=O)[C@H](Cc1c[nH]c2ccccc12)NC(=O)[C@H](CCCNC(=N)N)NC(=O)[C@H](CCCCN)NC(=O)[C@H](Cc1ccccc1)NC(=O)[C@H](Cc1ccccc1)NC(=O)CN)C(=O)N[C@@H](Cc1ccccc1)C(=O)N[C@@H](Cc1ccccc1)C(N)=O", "note": "(H-GFFKRWKTFF-NH2)", "values": [{"measurement": "MIC", "setting": "Bacteria [1]", "value": 19, "unit": "µM"}, {"measurement": "FIC", "setting": "Pseudomonas aeruginosa [2]", "value": 0.3125}, {"measurement": "MHC10", "setting": "Erythrocyte", "value": ">= 512 uM"}, {"measurement": "FIC", "setting": "Pseudomonas aeruginosa [3]", "value": 0.25}, {"measurement": "MIC", "setting": "Enterococcus faecalis", "value": 64, "unit": "µM"}, {"measurement": "MIC", "setting": "Klebsiella pneumoniae", "value": 32, "unit": "µM"}, {"measurement": "MIC", "setting": "Fungi", "value": 19, "unit": "µM"}, {"measurement": "MIC", "setting": "Bacteria [4]", "value": 22.6, "unit": "µM"}, {"measurement": "MIC", "setting": "Acinetobacter baumannii", "value": 64, "unit": "µM"}, {"measurement": "selectivity ratio at 18 h", "setting": "[5]", "value": 32}, {"measurement": "selectivity ratio", "setting": "[6]", "value": 26.9}, {"measurement": "IC50", "setting": "[7]", "value": 48.2, "unit": "µM"}, {"measurement": "selectivity ratio", "setting": "[8]", "value": 22.6}, {"measurement": "MIC", "setting": "Bacillus subtilis", "value": 16, "unit": "µM"}, {"measurement": "selectivity ratio", "setting": "[9]", "value": 26.9}, {"measurement": "MIC", "setting": "Escherichia coli", "value": 16, "unit": "µM"}, {"measurement": "MIC", "setting": "Bacteria [10]", "value": 16, "unit": "µM"}, {"measurement": "MIC", "setting": "[11]", "value": 4, "unit": "µM"}, {"measurement": "MIC", "setting": "Pseudomonas aeruginosa [12]", "value": 16, "unit": "µM"}, {"measurement": "MIC", "setting": "Staphylococcus aureus", "value": 16, "unit": "µM"}]}, {"molecule": "CC[C@H](C)[C@H](NC(=O)[C@H](CCCNC(=N)N)NC(=O)[C@H](CCCNC(=N)N)NC(=O)[C@H](Cc1ccccc1)NC(=O)[C@H](Cc1ccccc1)NC(=O)CN)C(=O)N[C@@H](CCCNC(=N)N)C(=O)N[C@H](C(=O)N[C@@H](Cc1ccccc1)C(=O)N[C@@H](Cc1ccccc1)C(N)=O)[C@@H](C)O", "note": "(H-GFFRRIRTFF-NH2)", "values": [{"measurement": "MIC", "setting": "Bacteria [1]", "value": 17.4, "unit": "µM"}, {"measurement": "FIC", "setting": "Pseudomonas aeruginosa [2]", "value": 0.5625}, {"measurement": "MHC10", "setting": "Erythrocyte", "value": ">= 512 uM"}, {"measurement": "FIC", "setting": "Pseudomonas aeruginosa [3]", "value": 0.5625}, {"measurement": "MIC", "setting": "Enterococcus faecalis", "value": 32, "unit": "µM"}, {"measurement": "MIC", "setting": "Klebsiella pneumoniae", "value": 32, "unit": "µM"}, {"measurement": "MIC", "setting": "Fungi", "value": 17.4, "unit": "µM"}, {"measurement": "MIC", "setting": "Acinetobacter baumannii", "value": 32, "unit": "µM"}, {"measurement": "selectivity ratio at 18 h", "setting": "[5]", "value": 32}, {"measurement": "selectivity ratio", "setting": "[6]", "value": 29.3}, {"measurement": "IC50", "setting": "[7]", "value": 52.6, "unit": "µM"}, {"measurement": "selectivity ratio", "setting": "[8]", "value": 26.9}, {"measurement": "MIC", "setting": "Bacillus subtilis", "value": 8, "unit": "µM"}, {"measurement": "selectivity ratio", "setting": "[9]", "value": 29.3}, {"measurement": "MIC", "setting": "Escherichia coli", "value": 32, "unit": "µM"}, {"measurement": "MIC", "setting": "Bacteria [10]", "value": 16, "unit": "µM"}, {"measurement": "MIC", "setting": "[11]", "value": 32, "unit": "µM"}, {"measurement": "MIC", "setting": "Pseudomonas aeruginosa [12]", "value": 32, "unit": "µM"}, {"measurement": "MIC", "setting": "Staphylococcus aureus", "value": 8, "unit": "µM"}]}, {"molecule": "CC(C)C[C@H](NC(=O)[C@H](CC(C)C)NC(=O)[C@@H](NC(=O)[C@H](CCCCN)NC(=O)[C@H](Cc1c[nH]c2ccccc12)NC(=O)[C@H](CCCNC(=N)N)NC(=O)[C@H](CCCCN)NC(=O)[C@H](CC(C)C)NC(=O)[C@H](CC(C)C)NC(=O)CN)[C@@H](C)O)C(N)=O", "note": "(H-GLLKRWKTLL-NH2)", "values": [{"measurement": "MIC", "setting": "Bacteria [1]", "value": 64, "unit": "µM"}, {"measurement": "FIC", "setting": "Pseudomonas aeruginosa [2]", "value": 0.5625}, {"measurement": "MHC10", "setting": "Erythrocyte", "value": ">= 512 uM"}, {"measurement": "FIC", "setting": "Pseudomonas aeruginosa [3]", "value": 0.3125}, {"measurement": "MIC", "setting": "Enterococcus faecalis", "value": 256, "unit": "µM"}, {"measurement": "MIC", "setting": "Klebsiella pneumoniae", "value": 64, "unit": "µM"}, {"measurement": "MIC", "setting": "Fungi", "value": 64, "unit": "µM"}, {"measurement": "MIC", "setting": "Bacteria [4]", "value": 45.3, "unit": "µM"}, {"measurement": "MIC", "setting": "Acinetobacter baumannii", "value": 256, "unit": "µM"}, {"measurement": "selectivity ratio at 18 h", "setting": "[5]", "value": 5.66}, {"measurement": "selectivity ratio", "setting": "[6]", "value": 8}, {"measurement": "IC50", "setting": "[7]", "value": "≥ 512", "unit": "µM"}, {"measurement": "selectivity ratio", "setting": "[8]", "value": 11.3}, {"measurement": "MIC", "setting": "Bacillus subtilis", "value": 128, "unit": "µM"}, {"measurement": "selectivity ratio", "setting": "[9]", "value": 8}, {"measurement": "MIC", "setting": "Escherichia coli", "value": 64, "unit": "µM"}, {"measurement": "MIC", "setting": "Bacteria [10]", "value": 90.5, "unit": "µM"}, {"measurement": "MIC", "setting": "[11]", "value": 16, "unit": "µM"}, {"measurement": "MIC", "setting": "Pseudomonas aeruginosa [12]", "value": 64, "unit": "µM"}, {"measurement": "MIC", "setting": "Staphylococcus aureus", "value": 128, "unit": "µM"}]}, {"molecule": "CC[C@H](C)[C@H](NC(=O)[C@H](CCCNC(=N)N)NC(=O)[C@H](CCCCN)NC(=O)[C@H](Cc1ccccc1)NC(=O)[C@H](Cc1c[nH]c2ccccc12)NC(=O)CN)C(=O)N[C@@H](CCCCN)C(=O)N[C@H](C(=O)N[C@@H](Cc1ccccc1)C(=O)N[C@@H](Cc1c[nH]c2ccccc12)C(N)=O)[C@@H](C)O", "note": "(H-GWFKRIKTFW-NH2)", "values": [{"measurement": "MIC", "setting": "Bacteria [1]", "value": 16, "unit": "µM"}, {"measurement": "FIC", "setting": "Pseudomonas aeruginosa [2]", "value": 0.3125}, {"measurement": "MHC10", "setting": "Erythrocyte", "value": 384, "unit": "µM"}, {"measurement": "FIC", "setting": "Pseudomonas aeruginosa [3]", "value": 0.25}, {"measurement": "MIC", "setting": "Enterococcus faecalis", "value": 64, "unit": "µM"}, {"measurement": "MIC", "setting": "Klebsiella pneumoniae", "value": 32, "unit": "µM"}, {"measurement": "MIC", "setting": "Fungi", "value": 16, "unit": "µM"}, {"measurement": "MIC", "setting": "Acinetobacter baumannii", "value": 64, "unit": "µM"}, {"measurement": "selectivity ratio at 18 h", "setting": "[5]", "value": 34}, {"measurement": "selectivity ratio", "setting": "[6]", "value": 24}, {"measurement": "IC50", "setting": "[7]", "value": 98.3, "unit": "µM"}, {"measurement": "selectivity ratio", "setting": "[8]", "value": 17}, {"measurement": "MIC", "setting": "Bacillus subtilis", "value": 4, "unit": "µM"}, {"measurement": "selectivity ratio", "setting": "[9]", "value": 24}, {"measurement": "MIC", "setting": "Escherichia coli", "value": 16, "unit": "µM"}, {"measurement": "MIC", "setting": "Bacteria [10]", "value": 11.3, "unit": "µM"}, {"measurement": "MIC", "setting": "[11]", "value": 4, "unit": "µM"}, {"measurement": "MIC", "setting": "Pseudomonas aeruginosa [12]", "value": 16, "unit": "µM"}, {"measurement": "MIC", "setting": "Staphylococcus aureus", "value": 16, "unit": "µM"}]}]}
